Results reported in US20040058852A1, “Use of gap-junction blockers in neurodegenerative disease” (priority 2002, published 2004).
“Also recorded” adds a separate entry of the source.

How the values were obtained:
[1] = test system: infarcts after stroke; settings: applied before the induction of stroke; cited from earlier work
[2] = test system: secondary edema following focal hypoxic-ischemic insult; settings: experimental animal models; cited from earlier work
[3] = test system: newborn infants; settings: newborn infants or heart surgery using deep hypothermic circulatory arrest; cited from earlier work
[4] = intraperitoneal and subcutaneous injections; cited from earlier work
[5] = test system: synaptic transmission in CA1 stratum radiatum of hippocampal slice cultures; experiment: Schaffer collateral-evoked excitatory postsynaptic potentials in slice cultures 24 hr post-HI; assay type: cell-based, Sprague-Dawley rat; settings: 75 μM, 45 min HI
Description: Organotypic hippocampal slice cultures were prepared from 9- to 12-day old Sprague-Dawley rat pups (Charles River, Wilmington, Del.) of both sexes (Stoppini et al., 1991). Rats were decapitated under deep ketamine anesthesia, the hippocampi rapidly dissected out and placed immediately into ice-cold dissection medium containing: 3.5 mM KCl, 0.5 mM NaH2PO4, 10 mM MgSO4, 5 mM NaHCO3, 118 mM n-methyl-D-glucosamina, 1.1 mM KH2PO4, 10 mM HEPES, 20 mM D-glucose, pH 7.35, gassed with 95% O2/5% CO2. Transverse slices of hippocampus plus entorhinal cortex were cut using a spring-loaded grid of 20 μm diameter wires spaced 400 μm apart. […]
Slice cultures were placed in an interface recording chamber between artificial cerebrospinal fluid (ACSF; perfusion rate 3 ml/min) and a humidified atmosphere of 95% O2/5% CO2. […] Extracellular excitatory postsynaptic potentials (EPSPs) were recorded (2 M NaCl-filled electrodes) in stratum radiatum and elicited by bipolar Schaffer collateral stimulation (intensities 20-200 μA), recorded using an Axopatch 200A amplifier in current-clamp mode.

[6] = test system: gap junction coupling in hippocampal slice cultures; experiment: Fluorescence recovery after photobleaching (FRAP) in CA1 fields of hippocampal slice cultures; assay type: cell-based, Sprague-Dawley rat; parameters: dose or concentration left out as unconfirmed
Description: Fluorescence recovery in CA1 fields of hippocampal slice cultures was evaluated as in Wade et al., 1986. Hippocampal slice cultures were loaded by 45 min application of carboxyfluorescein diacetate (30 μM). CA1 fields of view were photobleached for 2 min using the 488 nm laser line of a confocal microscope (Nikon RCM 8000) and images acquired at low power at 1 min intervals thereafter. Quantitative image analysis was performed using Polygon-Star software (Nikon).

[7] = test system: CA1 pyramidal neurons in organotypic hippocampal slice cultures; assay type: cell-based, Sprague-Dawley rat
Description: Organotypic hippocampal slice cultures were prepared from 9- to 12-day old Sprague-Dawley rat pups (Charles River, Wilmington, Del.) of both sexes (Stoppini et al., 1991). Rats were decapitated under deep ketamine anesthesia, the hippocampi rapidly dissected out and placed immediately into ice-cold dissection medium containing: 3.5 mM KCl, 0.5 mM NaH2PO4, 10 mM MgSO4, 5 mM NaHCO3, 118 mM n-methyl-D-glucosamina, 1.1 mM KH2PO4, 10 mM HEPES, 20 mM D-glucose, pH 7.35, gassed with 95% O2/5% CO2. Transverse slices of hippocampus plus entorhinal cortex were cut using a spring-loaded grid of 20 μm diameter wires spaced 400 μm apart. Slices were immediately transferred into dissection medium, separated and placed on semi-permeable membrane tissue culture inserts (Millipore Corporation, Bedford, Mass.) in a 6-well plate, each well containing 1 ml of culture medium (50% Minimum Essential Medium, 25% Hank's balanced salt solution, 25% heat-inactivated horse serum, 13 mM HEPES, 2.5 mg/ml glucose). Cultures were maintained at 35° C. in a humidified 5% CO2 incubator and medium was changed every 2-3 days.
After 6-10 days in culture, hippocampal slice cultures were exposed to hypoxia-ischemia (HI) by transient oxygen and glucose deprivation. Slices were transferred into another six-well plate containing 1 ml of Ringermannitol glucose-free medium per well, containing 1.25 mM CaCl2, 0.9 mM MgSO4, 5.4 mM KCl, 0.44 mM KH2PO4, 137 mM NaCl, 4.2 mM NaHCO3, 0.35 mM NaH2PO4, 16.7 mM HEPES, and 27.5 mM mannitol, and placed in a hypoxic box continuously gassed with 95% N2/5% CO2 for 45 min. They were then returned to normal medium with carbon dioxide until measurement of neuronal death.
Carbenoxolone (disodium salt) was purchased from Sigma (St. Louis, Mo.), propidium iodide and carboxyfluorescein diacetate from Molecular Probes (Eugene, Oreg.). Cleaved caspase-3 antibody was purchased from Cell Signaling (Beverly, Mass.).
Media containing 1 μM PI was applied for 10 min to slices and PI-labeled dead cells imaged using […] filters. IPLab (Signal Analytics Corp.) and NIH image analysis programs were used to quantitate total fluorescence intensity for equal regions of interest within the CA1 pyramidal cell body layer (stratum pyramidale).

[8] = test system: caspase-3; experiment: Western blot of activated caspase-3 in whole brain 24 hr after intrauterine HI; assay type: in vivo, rat; settings: for HI-induced increase of activated caspase-3 in whole brain: 75 mg/kg i.p. immediately after HI, 24 hr
Description: Protein was extracted from whole-brain 24 hr following HI and concentration determined with a BCA Protein Assay Kit (Pierce, Rockford, Ill.). Twenty-five μg protein/sample was applied per lane and separated by electrophoresis in 10% or 10-20% SDS-polyacrylamide gels (BioRad, Hercules, Calif.) and transferred to nitrocellulose membranes (Schleicher and Schuell, Keene, N.H.). Membranes were blotted […] with cleaved caspase-3 ([…]) antibody (1:700) overnight at 4° C., and then incubated in horseradish peroxidase-conjugated anti-rabbit IgG 1:1500. […] As an internal control, glyceraldehyde-3-phosphate dehydrogenase (GAPDH) was blotted with horseradish peroxidase-conjugated goat antimouse IgG at a concentration of 1:4000. Densitometriy of chemiluminescent bands was quantified using Scion Image densitometer software (NIH), and band densities normalized to GAPDH density in the same gel.

[9] = test system: rat pups subjected to intrauterine hypoxic-ischemia; experiment: Intrauterine hypoxic-ischemia (transient global anoxia during C-section delivery): survival, growth, histopathology; assay type: in vivo; settings: for survived reperfusion / mortality: 75 mg/Kg
Description: Sprague Dawley fetuses were subjected to transient global anoxia during C-section delivery (Bjelke et al., 1991; Brake et al., 1997). Pregnant rats at term (21 days gestation) were decapitated, the abdomen incised, and the uterus was quickly isolated from its blood supply and surrounding fat tissue and connective tissue. Acute anoxia was induced by immersing the intact uterus containing the fetuses into 37° C. saline for 12.5-15 min. […] Blood gases and pH Samples were analyzed for blood gases and pH on a blood gas monitor (RapidLab 855, Bayer,UK).
Animals were deeply anesthetized with ketalar and perfused via a transcardiac site after which brains were removed, rinsed with saline and fixed in formaldehyde buffered to pH 7.35. Brains were cut into sagittal sections, sliced in 2 mm cross-sections (Braintree Scientific Inc, Mass.), dehydrated with a tissue processor (TP1050, Leica Instruments, Germany), embedded in paraffin, sectioned with a Leica freezing microtome, and stained with haematoxylon-eosin.
Groups were compared by ANOVA or Student's t-test, as appropriate, with group size pre-selected based on P<0.05 significance criterion.

[10] = test system: neonatal rats with seizures following intrauterine HI insults; experiment: Behavioral and electrographic (EEG) seizures after intrauterine hypoxic-ischemia; assay type: in vivo, rat; parameters: ischemic pups that died: dose or concentration left out as unconfirmed; settings: for behavioral seizures following HI insults: i.p. at the onset of motor seizures; for electrographic seizures (EEG epileptiform activity): i.p., EEG 40 min after administration, one pup
Text: Rat pups were delivered by C-section. One group was subjected to intra-uterine hypoxic-ischemia, the control group was also delivered by caesarian-section but not subjected to a period of hypoxic-ischemia.
Surviving animals in all groups were examined neuropathologically at 21 days following delivery (P21).

[11] = test system: brain damage in immature fetuses and newborn infants; settings: randomized double-blind trials; cited from earlier work
[12] = i.p. to newborn rats at least 15 min after HI

CCCCCCCCO [octanol]
infarct size [1]: reduced infarct size; also recorded: reduce the size of infarcts

Oc1ncnc2[nH]ncc12 [Allopurinol]
severity of secondary edema [2]: reduced
outcome in clinical trials [3]: has not been successful

CC1(C)[C@@H](OC(=O)CCC(=O)O)CC[C@]2(C)[C@H]3C(=O)C=C4[C@@H]5C[C@@](C)(C(=O)O)CC[C@]5(C)CC[C@@]4(C)[C@]3(C)CC[C@@H]12 [carbenoxolone, Carbenoxolone]
crossing of normoxic foeto-placental and adult blood-brain barriers [4]: has been shown to cross
protection against loss of synaptic transmission in CA1 stratum radiatum (EPSP) [5]: very effective
gap junction coupling in slice cultures [6]: effective at reducing gap junction coupling
viability or morphology of control organotypic slice cultures [7]: did not detectably alter
neuroprotection when applied in vitro ([7]; 75 μM): marked neuroprotection
delayed death of CA1 pyramidal neurons assessed by PI staining intensity ([7]; 75 μM added 30 min prior to, during and 60 min after a 45 min HI insult, 24 hr following HI): markedly reduced
PI fluorescence 24 hr post-HI in hippocampal slice culture ([7]; 75 μM, 60 min after the end of the HI episode (FIG. 2c)): reduced PI fluorescence
HI-induced increase of activated caspase-3 in whole brain [8]: largely prevented
HI-induced increase of activated caspase-3 in whole brain ([8]; listed as Carbenoxolone): reduced the activation
activation of caspase-3, reduced to ([8]; 75 mg/kg i.p. immediately after perinatal HI, 24 hr post-HI, relative to HI alone): 43±15%
caspase-3 band densities (normalized to GAPDH) ([8]; HI+Carb, 75 mg/kg i.p., 24 hr post-HI): 302±115
survived reperfusion ([9]; 4 hrs): 76.5±9%
mortality ([9]; 4 hrs of reoxygenation/recirculation after perinatal HI): 23.5%
survived reperfusion ([9]; 24 hrs): 73±9.5%
mortality ([9]; 24 hrs after perinatal HI): 27%
survived reperfusion ([9]; 48 hrs): 70±12.5%
mortality ([9]; 48 hrs after perinatal HI): 30%
cerebellar damage ([9]; 75 mg/kg i.p. after intrauterine HI): preventing cerebellar damage
extent of histopathological damage in the hippocampus and neocortex ([9]; 75 mg/kg i.p. after intrauterine HI, n=5): dramatically reduced
long-term development assessed by size ([9]; 75 mg/kg immediately after intrauterine HI, compared to HI alone (FIG. 3d)): improves
survival rate ([9]; 21 days post-HI): 70±12%
crossing of the blood-brain barrier [9, 12]: cross the blood-brain barrier in sufficient time and concentration
long-term damage induced by HI [9, 12]: markedly reduce
body weight ([9]; postnatal day 21, HI rats): 29.2 ± 3 g
behavioral seizures following HI insults [10]: absence of seizures; also recorded: abolishes
behavioral seizures following HI insults ([10]; listed as Carbenoxolone): stopped
electrographic seizures (EEG epileptiform activity) [10]: loss of electrographic epileptiform activity; also recorded: abolishes
electrographic seizures (EEG epileptiform activity) ([10]; listed as Carbenoxolone): stopped
ischemic pups that died ([10]; treated with carbenoxolone): One of 12

O=S(=O)([O-])[O-].[Mg+2] [magnesium sulfate]
protective effect against brain damage [11]: did not provide a protective effect
